# Measured values reported in paper PMC8145564, “Phenolic Compounds from Carissa spinarum Are Characterized by Their Antioxidant, Anti-Inflammatory and Hepatoprotective Activities” (Antioxidants, 2021).
# “Also recorded” adds a separate entry of the source. Marks after values point to notes of the source that are not given here.
# What was measured:
# [1] = Ferric reducing antioxidant power (FRAP) assay; format: biochemical; conditions: for FRAP total antioxidant activity (result in words): isolated compounds, 6.25 to 100 µM, positive control vitamin C
# Procedure: The FRAP assay was performed according to the methodology reported in [26, 27] with minor modifications. Briefly, the FRAP working solution, composed of 300 mM acetate buffer (pH 3.6), 10 mM TPTZ solution and 20 mM FeCl3·6H2O solution in a ratio of 10:1:1 (v/v/v), was freshly prepared and warmed at 37 °C before use. Then, 190 µL FRAP working solution and 10 µL samples were added in 96-well plates and incubated at 37 °C for 10 min. The absorbance of the reaction mixture was collected by a microplate reader at 593 nm. A standard curve was established by FeSO4 at final concentrations ranging from 1.56 to 200 µM, and the total antioxidant activities of the extracts, compounds and positive controls (vitamin C) were calculated by the standard curve and expressed in terms of the FeSO4 value (µM). All the results were shown by the average values of the three biological replications.
# L02 cells [2] = assay: Hepatoprotective activity on L02 cells against H2O2-induced oxidative stress (SRB cell viability); format: cell-based; conditions: then 300 µM H2O2 for 4 h, % of normal control, H2O2 model group 68.2% (65.2% for vitamin C); for viability at 5 µM: Homo sapiens, L02, 12 h pretreatment
# Procedure: The L02 cells were purchased from BeNa Culture Collection Company (BNCC, Beijing, China) and cultured in RPMI-1640 medium supplemented with 10% fetal bovine serum (FBS) and 1% penicillin–streptomycin solution at 37 °C under 5% CO2 in a humidified incubator. The H2O2 induced oxidative stress model of L02 cell was established according to the reported method with slight modifications. Firstly, 120 µL L02 cell suspension (1 × 10^4 cells) was seeded in a 96-well plate and incubated for 24 h, followed by the addition of 15 µL PBS buffer (corresponding to the addition of tested samples). […] The cell viability was evaluated by the SRB test kit (BestBio, Shanghai, China) following the manufacturer’s instructions. According to the above result, after the 24 h incubation, the L02 cells were pretreated with 15 µL samples of various concentrations or PBS (H2O2-induced model and normal control group) for 12 h. Then, 15 µL H2O2 solution (300 µM) or PBS (normal control group) was added and maintained for 4 h. Finally, the cell viability was tested by the SRB method and expressed as a percentage of the normal control group. Each group was performed in triplicate.
# L02 cells [3] = assay: Quantitation of intracellular ROS (DCFH-DA) in H2O2-induced L02 cells; format: cell-based; conditions: 5 µM final concentration, DCFH-DA fluorescence
# Procedure: The quantitation of intracellular ROS was detected by the ROS assay kit purchased from Beyotime (Shanghai, China) following the manufacturer’s instructions. The cell pretreatment was the same as hepatoprotective activity screening. Four hours later, after the addition of H2O2, the cells were incubated with 10 µM DCFH-DA (final concentration in RPMI-1640 medium) for 30 min, and were then washed three times with medium. Finally, the fluorescence intensity was recorded by a microplate reader with the excitation wavelength at 488 nm and the emission wavelength at 525 nm and then the fluorescence photos were taken by a cell imaging multi-mode reader (Cytation 1, BioTek, Winooski, VT, USA). Each group was performed in triplicate and the fluorescence values were calibrated by the corresponding cell viabilities using the SRB method.
# rhCOX-2 = biological target: T1, rhCOX-2 (Homo sapiens, UniProt P35354); assay: COX-2 inhibition assay (COX-2 inhibitor screening kit, fluorescence probe method)
# T1 sequence (P35354 18-604): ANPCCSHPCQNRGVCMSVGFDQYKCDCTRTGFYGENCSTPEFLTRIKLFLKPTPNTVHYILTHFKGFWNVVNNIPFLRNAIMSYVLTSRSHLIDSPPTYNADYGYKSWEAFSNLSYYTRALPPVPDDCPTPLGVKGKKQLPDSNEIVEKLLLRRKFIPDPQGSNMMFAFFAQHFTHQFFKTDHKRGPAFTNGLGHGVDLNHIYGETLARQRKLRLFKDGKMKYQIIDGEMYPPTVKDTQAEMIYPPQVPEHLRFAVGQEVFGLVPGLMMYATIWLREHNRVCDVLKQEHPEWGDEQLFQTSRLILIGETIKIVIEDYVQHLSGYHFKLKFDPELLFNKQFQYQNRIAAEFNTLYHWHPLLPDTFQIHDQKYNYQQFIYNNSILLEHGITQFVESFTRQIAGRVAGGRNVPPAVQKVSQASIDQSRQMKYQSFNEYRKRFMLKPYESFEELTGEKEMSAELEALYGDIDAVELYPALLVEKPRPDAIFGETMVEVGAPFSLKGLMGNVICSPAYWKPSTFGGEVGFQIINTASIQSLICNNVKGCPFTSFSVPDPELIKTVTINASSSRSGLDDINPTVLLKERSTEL
# Procedure: COX-2 inhibition activity was screened using a commercial assay kit by the fluorescence probe method, following the manufacturer’s instructions, based on a two-step reaction: the substrate (arachidonic acid) was firstly catalyzed by COX-2 to generate PGG2, which was then further catalyzed by COX-2 to produce PGH2. During the second step, the probe without fluorescence added in the reaction system was simultaneously catalyzed to probe with strong fluorescence. […] After incubation for 10 min at 37 °C, 5 µL COX-2 substrate and 5 µL COX-2 probe were added and incubated in darkness for 10 min. Then, the fluorescence intensity was recorded by microplate reader with the excitation wavelength at 560 nm and the emission wavelength at 590 nm. The COX-2 activity inhibition percentage was calculated by the following equation: COX-2 activity inhibition (%) = [(F100% activity control − Fsample)/(F100% activity control − Fblank control)] × 100%(2) where F100% activity control, Fsample and Fblank control represent the fluorescence intensity of the 100% enzyme activity control, samples or positive control, and blank control, respectively.
# [4] = DPPH radical scavenging activity assay; format: biochemical; conditions: for IC50: isolated compounds, final concentrations 6.25 to 100 µM; for Antioxidant potential in DPPH and FRAP (result in words): both methods (DPPH and FRAP)
# Procedure: The 2,2-diphenyl-1-picrylhydrazyl (DPPH) radical scavenging abilities of the C. spinarum extracts and isolated compounds were assessed by the previously reported method. The reaction mixtures containing 190 µL DPPH solution (100 µM) and 10 µL samples (extracts or compounds) or positive control (vitamin C) solutions with various concentrations or blank control (methanol) were placed in the 96-well plate, and incubated in darkness at room temperature for 30 min. Then, the absorbance of the reaction mixture was measured by the microplate reader at 517 nm. All groups were tested in triplicate and the DPPH radical scavenging activity was calculated by the following equation:DPPH-radical scavenging percentage (%) = [(Acontrol − Asample)/Acontrol] × 100%(1)
# Acontrol and Asample represent the absorbance of the blank control and samples or positive control, respectively. Additionally, the IC50 values, which were defined as the effective sample concentration when DPPH radical was scavenged by 50%, were calculated by the GraphPad Prism software.
compound,measurement,setting,value
"COc1cc([C@@H](O)[C@H](C)O)ccc1O [Compound 7, threo-1-(3-methoxy-4-hydroxy-phenyl)-propan-1,2-diol]",FRAP total antioxidant activity (result in words),[1],higher reducing capacities than the positive control
"COc1cc([C@H]2c3cc(O)c(OC)cc3C[C@@H](CO)[C@@H]2CO[C@@H]2O[C@H](CO)[C@@H](O)[C@H](O)[C@H]2O)ccc1O [Compound 2, (+)-isolariciresinol 3a-O-β-D-glucopyranoside]",FRAP total antioxidant activity (result in words),[1],higher reducing capacities than the positive control
same,viability at 5 µM,L02 cells [2],79.4%
same,ROS quantity versus H2O2-induced model group,L02 cells [3],statistically significant decreases in ROS quantity
same,IC50,rhCOX-2,0.3 µM
"O=C1O[C@H]([C@@H](O)CO)C(O)=C1O [Vitamin C, vitamin C, reference compound]",DPPH IC50,"[4]; extracts of C. spinarum root bark, 30 min, 517 nm, means ± SD (n = 3)",4.5 ± 0.1 ^d µg/mL
same,IC50,[4]; means ± SD (n = 3),25.5 ± 0.3 µM
same,FRAP,"[1]; extracts of C. spinarum root bark, means ± SD (n = 3)",8.9 ± 1.2 ^b mmol Fe^2+/g
same,Viability of L02 cells,"L02 cells [2]; 5 µM, 12 h pretreatment",82.7%
"O=C(O)c1ccc(O)c(O)c1 [Compound 9, protocatechuic acid]",IC50,[4]; means ± SD (n = 3),16.5 ± 1.2 µM
same,FRAP total antioxidant activity (result in words),[1],higher reducing capacities than the positive control
same,viability at 5 µM,L02 cells [2],80.9%
same,ROS quantity versus H2O2-induced model group,L02 cells [3],statistically significant decreases in ROS quantity
"O=C(O)Cc1cccc(C(=O)O)c1 [Compound 8, 3-carboxymethyl-benzoic acid]",Antioxidant potential in DPPH and FRAP (result in words),[4],no obvious antioxidant potential
same,DPPH scavenging rate at the highest tested concentration,[4]; highest tested concentration (100 µM),lower than 10%
same,FRAP total antioxidant activity (result in words),[1],did not show any activities
same,COX-2 inhibition activity (result in words),"rhCOX-2; all tested concentrations, 0.04 to 25 µM",no COX-2 ability in all tested concentrations; also recorded: did not show any activities
"COc1cc([C@@H](O)[C@@H](C)O)ccc1O [Compound 6, erythro-1-(3-methoxy-4-hydroxy-phenyl)-propan-1,2-diol]",FRAP total antioxidant activity (result in words),[1],higher reducing capacities than the positive control
"CC(=O)c1ccccc1O[C@@H]1OC(CO[C@@H]2OC[C@@H](O)[C@H](O)[C@H]2O)[C@@H](O)[C@H](O)[C@H]1O (stereo partly drawn) [Compound 5, acetophenone-2-O-β-xylopyranosyl-(1→6)-O-β-glucopyranoside]",Antioxidant potential in DPPH and FRAP (result in words),[4],no obvious antioxidant potential
